We go through ten compounds from PubChem BioAssay (NCI).

Values joined by “and” are separate entries in the source; they are usually repeats but may differ in a detail not shown here. Identical values can stand only once.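 Method: 48-hour compound exposure of cells in 96-well plates, five concentrations, linear interpolation of endpoints. GI50 is the concentration that inhibits growth by half. TGI: total growth inhibition.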

Among the test systems are NCI/ADR-RES ovarian; EKVX NSCLC; UACC-62 melanoma; RXF 393 renal; A498 renal; SF-268 CNS; OVCAR-5 ovarian; SNB-75 CNS; HCT-116 colon; SNB-19 CNS.
Assay in all cases: NCI anticancer screen, dose series, 48 h

Take `COc1cc(Cc2nccc3cc(OC)c(OC)cc23)c(C(C)=O)cc1OC`: the TGI in the experiment with NCI/ADR-RES ovarian is above 300 µM; in the experiment on EKVX NSCLC, 295 µM; with UACC-62 melanoma it was 219 µM and > 750 µM; in the experiment with RXF 393 renal it was 300 µM and > 750 µM; with A498 renal it was > 300 µM and 507 µM; in the experiment on SF-268 CNS it was 419 µM. In addition, the TGI is above 750 µM with OVCAR-5 ovarian; 300 µM and > 750 µM in the experiment on SNB-75 CNS. Besides, the GI50 was above 750 µM in the experiment with RXF 393 renal, 204 µM in the experiment with A498 renal, 204 µM with OVCAR-5 ovarian and 29.4 µM in the experiment with SNB-75 CNS.
Consider `COc1cc(OC)c(C(=O)/C=C/c2cccc(C(F)(F)F)c2)c(OC)c1`, for which the GI50 in the experiment with NCI/ADR-RES ovarian is 1.4 µM; in the experiment with HCT-116 colon, 0.806 µM; in the experiment on SNB-19 CNS it was 1.44 µM; in the experiment on EKVX NSCLC, 1.5 µM; in the experiment with UACC-62 melanoma, 0.986 µM; with RXF 393 renal, 1.03 µM. Besides, the GI50 is 1.4 µM in the experiment with A498 renal, 1.64 µM in the experiment with SF-268 CNS, 2.28 µM in the experiment on OVCAR-5 ovarian and 1.88 µM in the experiment on SNB-75 CNS. For the same compound, the TGI in the experiment with NCI/ADR-RES ovarian turned out to be 5.95 µM; in the experiment with HCT-116 colon, 1.59 µM; in the experiment on SNB-19 CNS, 4.67 µM; in the experiment on EKVX NSCLC, 4.3 µM; with UACC-62 melanoma it was 2.5 µM; in the experiment on RXF 393 renal, 2.24 µM. The TGI with A498 renal is 4.44 µM; with SF-268 CNS it was 6.13 µM; in the experiment with OVCAR-5 ovarian it was 7.04 µM; in the experiment on SNB-75 CNS it was 7.9 µM.
In the case of `CCc1nc(N)nc(N)c1-c1ccc(NC)c([N+](=O)[O-])c1`, the TGI was above 100 µM with NCI/ADR-RES ovarian; above 100 µM in the experiment with HCT-116 colon; above 80.4 µM in the experiment with SNB-19 CNS; above 100 µM with EKVX NSCLC; above 100 µM in the experiment on UACC-62 melanoma; above 93.3 µM with RXF 393 renal. Also, the TGI with A498 renal was above 87 µM; in the experiment with SF-268 CNS, above 100 µM; with OVCAR-5 ovarian it was above 100 µM; with SNB-75 CNS, above 100 µM.
On to `Nc1ccccc1C#C/C=C\C#Cc1ccccc1N`, for which the GI50 is 2.26 µM in the experiment with NCI/ADR-RES ovarian; 4.15 µM with HCT-116 colon; 48.9 µM in the experiment with SNB-19 CNS; 17 µM in the experiment on EKVX NSCLC; 11.4 µM in the experiment with UACC-62 melanoma; 16.8 µM in the experiment on RXF 393 renal. Besides, the GI50 in the experiment with A498 renal was 13.6 µM; in the experiment with SF-268 CNS, 10.7 µM; in the experiment on OVCAR-5 ovarian, 10.9 µM; in the experiment with SNB-75 CNS, 29.4 µM. Besides, the TGI was 7.95 µM in the experiment with NCI/ADR-RES ovarian; 19.1 µM in the experiment with HCT-116 colon; above 100 µM with SNB-19 CNS; 69.5 µM in the experiment with EKVX NSCLC; 27.5 µM in the experiment on UACC-62 melanoma; 47.6 µM in the experiment with RXF 393 renal. In addition, the TGI with A498 renal is 36 µM; in the experiment with SF-268 CNS, 37.9 µM; in the experiment with OVCAR-5 ovarian, 40.7 µM; in the experiment with SNB-75 CNS it was above 100 µM.
For the compound `CN1CCc2nc(N)nc(-c3nc(N)nc4c3CN(C)CC4)c2C1`, the TGI with NCI/ADR-RES ovarian, with HCT-116 colon, in the experiment with SNB-19 CNS, with EKVX NSCLC, with UACC-62 melanoma and with RXF 393 renal was above 100 µM throughout. In addition, the TGI in the experiment with A498 renal, with SF-268 CNS and in the experiment with OVCAR-5 ovarian was above 100 µM each time.
Regarding `Cc1cc2ncnn2cc1Nc1ncc2c(n1)n(C1CCOCC1)c(=O)n2C`, the GI50 with NCI/ADR-RES ovarian is 19.9 µM; in the experiment on HCT-116 colon it was 10.7 µM; with EKVX NSCLC it was 10.8 µM; in the experiment on UACC-62 melanoma, 3.5 µM; in the experiment on RXF 393 renal, 3.73 µM; in the experiment on A498 renal, 0.319 µM. The GI50 in the experiment on SF-268 CNS is 6.18 µM; in the experiment on OVCAR-5 ovarian, 5.81 µM; in the experiment with SNB-75 CNS, 1.12 µM. Further, the TGI in the experiment on NCI/ADR-RES ovarian was above 100 µM; in the experiment with HCT-116 colon, above 100 µM; with EKVX NSCLC it was above 100 µM; in the experiment with UACC-62 melanoma, 29.3 µM; in the experiment with RXF 393 renal, 29.9 µM; with A498 renal, 2.22 µM. Besides, the TGI in the experiment with SF-268 CNS is above 100 µM; with OVCAR-5 ovarian, above 100 µM; with SNB-75 CNS it was 6.96 µM.
With `CC(C)c1c(O)c(O)c2c(c1O)C(=O)C(O)=C1C(C)(C)CCC[C@@]12C`, the TGI with HCT-116 colon amounted to 11.2 µM; with SNB-19 CNS, 22.1 µM; in the experiment with EKVX NSCLC it was 11.5 µM; in the experiment on UACC-62 melanoma it was 16.1 µM; in the experiment with RXF 393 renal, 9.24 µM; in the experiment with A498 renal, 11.9 µM. For the same compound, the TGI in the experiment with SF-268 CNS worked out at 20 µM; in the experiment on OVCAR-5 ovarian, 19.5 µM; in the experiment on SNB-75 CNS, 8.12 µM.
With `COc1ccc(C(=O)c2cc(C)c(OC)c(C)c2)cc1OC(=O)CCl`, the GI50 in the experiment with NCI/ADR-RES ovarian was below 0.01 µM; in the experiment with HCT-116 colon it was below 0.0111 µM; in the experiment on SNB-19 CNS, below 0.01 µM; in the experiment on EKVX NSCLC it was 0.0928 µM; with UACC-62 melanoma, 0.0402 µM; with A498 renal it was 1.45 µM. Further, the GI50 is below 0.011 µM in the experiment on SF-268 CNS, 1.71 µM in the experiment on OVCAR-5 ovarian and below 0.01 µM in the experiment on SNB-75 CNS. The TGI in the experiment with NCI/ADR-RES ovarian is above 63.5 µM; in the experiment with HCT-116 colon, above 100 µM; in the experiment with SNB-19 CNS it was above 100 µM; in the experiment on EKVX NSCLC it was above 100 µM; in the experiment on UACC-62 melanoma, above 100 µM; in the experiment with A498 renal it was 9.51 µM. Besides, the TGI in the experiment on SF-268 CNS, in the experiment with OVCAR-5 ovarian and in the experiment with SNB-75 CNS was above 100 µM in each case.
For the compound `COc1ccc(-c2cc(-c3cc(C)cc(Br)c3O)no2)cc1`, the TGI in the experiment with NCI/ADR-RES ovarian was above 100 µM; in the experiment with HCT-116 colon, 28.5 µM; in the experiment with SNB-19 CNS, 58 µM; in the experiment with EKVX NSCLC, 78.3 µM; in the experiment on UACC-62 melanoma, 38.9 µM; with A498 renal, 13 µM. Also, the TGI with SF-268 CNS worked out at 22.8 µM; in the experiment with OVCAR-5 ovarian, 88.9 µM; with SNB-75 CNS, 8.73 µM.
Turning to `C=C1C(=O)O[C@H]2[C@H]1CC/C(COC(=O)NCCCCNC(=O)OC/C1=C/CC[C@@]3(C)O[C@H]3[C@H]3OC(=O)C(=C)[C@@H]3CC1)=C\CC[C@@]1(C)O[C@@H]21`, the GI50 was 37.7 µM with NCI/ADR-RES ovarian; 1.12 µM with HCT-116 colon; 3.69 µM in the experiment on EKVX NSCLC; 0.753 µM in the experiment with UACC-62 melanoma; 1.44 µM with RXF 393 renal; 6.36 µM in the experiment on A498 renal. Besides, the GI50 was 3.18 µM in the experiment with SF-268 CNS, 1.75 µM in the experiment on OVCAR-5 ovarian and 2.19 µM with SNB-75 CNS. Besides, the TGI in the experiment with NCI/ADR-RES ovarian was above 100 µM; in the experiment with HCT-116 colon, 2.63 µM; in the experiment on EKVX NSCLC it was 13.5 µM; in the experiment on UACC-62 melanoma, 2.5 µM; with RXF 393 renal it was 3.36 µM; in the experiment on A498 renal it was 18.9 µM. The results for the TGI in the experiment on SF-268 CNS, in the experiment with OVCAR-5 ovarian and with SNB-75 CNS were 12.6 µM, 3.69 µM and 16.5 µM, respectively.
